Experimental data from US20220306695A1, “COMPSTATIN ANALOGUES AND THEIR MEDICAL USES” (priority 2019, published 2022).
Like-named read-outs stand apart in the source and are kept apart here. Blank lines part the entries; values can stand above or below the molecule they belong to. Starred links: 1 amine or outer side, 2 acyl side, 3 side chain; linkers in the order of their positions; H or OH if unused. Positions of bridges follow the written chain, without caps; N, C: chain ends. Non-standard residues stand in square brackets, D forms with d. Residues, ends and D or L forms follow the SMILES beside them. Groups on a side chain read outwards from the residue. *: point of attachment. Trp(1-Me) = Cn1cc(C[C@H](N)C(=O)O)c2ccccc21; Abu(4-yl) = O=C([C@H](CC[*:3])N[*:1])[*:2]; C18 diacid = O=C(O)CCCCCCCCCCCCCCCCC(=O)*; C16 diacid = O=C(O)CCCCCCCCCCCCCCC(=O)*; γGlu = O=C(O)[C@H](CCC(=O)[*:2])N[*:1]; AEEA = NCCOCCOCC(=O)O; Sar = CNCC(=O)O

Legend:
[1] = test system: classical complement pathway; test: In vitro haemolysis assay (inhibition of classical complement pathway); format: cell-based, human; conditions: Table 3; human serum, sensitized sheep red blood cells; read-out: IC50[nM], in vitro analysis of inhibition of hemolysis
Summary of the method: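 Serially diluted compound (9 points) was preincubated 15 min at room temperature with diluted human serum, titrated per batch to give 70-90% maximal haemolysis, in Tris/casein buffer pH 7.4 with Mg2+/Ca2+. Antibody-sensitized sheep erythrocytes were then added for 30 min at 37° C, and the reaction was stopped with EDTA. Haemolysis was read at A405, with IC50 from 4PL fit.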

[2] = format: physicochemical; conditions: 50 mg/mL peptide; for Covalent oligomer content after 14 days 40° C. (%), F1 / Purity after 14 days 40° C. (%), F1: F1: 20 mM phosphate pH 5.5; for Covalent oligomer content after 14 days 40° C. (%), F1 / Covalent oligomer content after 14 days 40° C. (%), F2: denaturing SEC; for Purity after 14 days 40° C. (%), F1 / Purity after 14 days 40° C. (%), F2 / Purity after 14 days 40° C. (%), F3: normalized purity (HPLC)
Description: Chemical stability of compstatin analogues with cystathionine or disulfide bridge. Stability was assessed in three formulations at 50 mg/mL peptide, F1:20 mM phosphate pH 5.5, F2:20 mM phosphate pH 6.5 and F3:20 mM phosphate pH 7.5. The formulations were prepared by direct dissolution of peptide from lyophilized portions in the respective formulations. pH was adjusted to target with 1 M NaOH and 1 M HCl. Chemical stability was assessed under accelerated conditions (14 days, 40° C.) and evaluated as change in purity by reverse phase HPLC, and change in covalent oligomer content by denaturing SEC. The formulations were placed at 40° C. with analysis points at T=0, 7 and 14 days. On each time point a small volume was extracted and diluted to 2 mg/mL and tested by reverse phase HPLC and denaturing SEC. Purity was assessed by reverse phase HPLC using an Ultimate 3000 system for binary gradient application equipped with a Kinetix C18 column (cat. no. 00F-4462-Y0, 150 mm×3 mm, 2.6 μm) run at 0.5 ml/min with a gradient of buffer A (0.3% TFA, aq.) and buffer B (0.3% TFA, 90% MeCN, aq.) gradient from 40% B to 70% B over 20 min. Detection was done using a diode array detector set to 220 nm. Covalent oligomer formation was assessed by denaturing SEC (size exclusion chromatography) using an Ultimate 3000 system equipped with a TSKgel SuperSW 2000 column (cat. no. 818674, 300 mm×3 mm, 4 μm) run at 0.5 ml/min with isocratic flow of buffer A (0.1% TFA, 45% MeCN, aq.), 10 min. Detection was done using a diode array detector set to 215 nm. Compounds 126 and 156 were carefully weighed out and dissolved in formulations F1, F2 and F3 to a target concentration of 50 mg/mL. Once visually dissolved, concentration was confirmed by absorbance at 280 nm, and samples were placed in stability at 40° C. Samples for analysis were extracted on T=0, 7 and 14 days from a 40° C. climate chamber. The extracted volume was dissolved 1:25 (final concentration: 2 mg/mL) in 20 mM phosphate pH 5.5, 6.5 or 7.5 and measured by reverse phase HPLC and denaturing SEC by injection of 0.4 μL (column load […]). The resulting chromatograms were integrated to determine chemical purity by reverse phase HPLC and covalent oligomer content by denaturing SEC.

Human C3 = Human C3 (human, UniProt P01024 23-1663); test: cell-based or functional assay
Sequence of Human C3 (P01024 23-1663 limits assumed): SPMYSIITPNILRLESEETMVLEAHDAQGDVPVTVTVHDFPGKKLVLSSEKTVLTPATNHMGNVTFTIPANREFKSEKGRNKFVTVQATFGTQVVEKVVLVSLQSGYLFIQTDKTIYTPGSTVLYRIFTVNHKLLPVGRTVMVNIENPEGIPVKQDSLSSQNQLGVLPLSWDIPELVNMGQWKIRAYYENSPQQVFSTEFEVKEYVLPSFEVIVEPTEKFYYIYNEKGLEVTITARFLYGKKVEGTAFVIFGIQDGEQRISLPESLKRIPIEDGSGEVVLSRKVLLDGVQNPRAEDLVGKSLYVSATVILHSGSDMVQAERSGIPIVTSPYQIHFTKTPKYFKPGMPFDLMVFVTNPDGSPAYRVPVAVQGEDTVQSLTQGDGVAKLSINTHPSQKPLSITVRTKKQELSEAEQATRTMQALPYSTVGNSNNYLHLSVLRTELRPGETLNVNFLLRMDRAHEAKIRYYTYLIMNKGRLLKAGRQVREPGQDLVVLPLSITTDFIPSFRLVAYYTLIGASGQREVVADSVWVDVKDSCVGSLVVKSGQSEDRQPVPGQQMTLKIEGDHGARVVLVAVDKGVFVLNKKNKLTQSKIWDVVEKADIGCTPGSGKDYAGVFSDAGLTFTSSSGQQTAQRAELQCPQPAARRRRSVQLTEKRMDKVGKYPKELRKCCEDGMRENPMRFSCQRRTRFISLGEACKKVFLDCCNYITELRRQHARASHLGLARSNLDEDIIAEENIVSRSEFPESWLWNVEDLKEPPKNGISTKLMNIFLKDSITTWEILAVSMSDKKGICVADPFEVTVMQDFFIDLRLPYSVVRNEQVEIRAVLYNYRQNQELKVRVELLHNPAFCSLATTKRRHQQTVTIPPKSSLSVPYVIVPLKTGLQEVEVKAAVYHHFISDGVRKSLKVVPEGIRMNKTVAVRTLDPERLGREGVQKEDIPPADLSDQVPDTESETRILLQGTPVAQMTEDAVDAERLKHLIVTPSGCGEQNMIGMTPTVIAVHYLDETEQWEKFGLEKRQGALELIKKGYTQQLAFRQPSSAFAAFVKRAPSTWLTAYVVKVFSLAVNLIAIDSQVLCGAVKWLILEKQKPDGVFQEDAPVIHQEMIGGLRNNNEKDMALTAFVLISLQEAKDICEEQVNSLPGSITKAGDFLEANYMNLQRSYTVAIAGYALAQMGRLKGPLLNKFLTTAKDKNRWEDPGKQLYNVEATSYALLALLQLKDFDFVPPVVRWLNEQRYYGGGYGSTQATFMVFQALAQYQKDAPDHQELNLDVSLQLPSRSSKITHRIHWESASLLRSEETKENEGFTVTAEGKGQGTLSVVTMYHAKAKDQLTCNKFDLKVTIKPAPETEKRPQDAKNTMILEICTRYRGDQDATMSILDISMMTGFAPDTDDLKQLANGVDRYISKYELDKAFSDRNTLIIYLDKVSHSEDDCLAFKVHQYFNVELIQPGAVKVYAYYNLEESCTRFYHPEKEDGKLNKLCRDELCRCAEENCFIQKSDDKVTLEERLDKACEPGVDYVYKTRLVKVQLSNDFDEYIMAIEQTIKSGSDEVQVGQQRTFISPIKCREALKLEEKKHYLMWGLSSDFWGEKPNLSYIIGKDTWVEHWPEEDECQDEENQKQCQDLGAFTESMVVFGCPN

Covalent oligomer content after 14 days 40° C. (%), F1 [2]: 0.7%
Purity after 14 days 40° C. (%), F1 [2]: 97%
Covalent oligomer content after 14 days 40° C. (%), F2 ([2]; F2: 20 mM phosphate pH 6.5): 0.5%
Purity after 14 days 40° C. (%), F2 ([2]; F2: 20 mM phosphate pH 6.5): 99%
Covalent oligomer content after 14 days 40° C. (%), F2 ([2]; F3: 20 mM phosphate pH 7.5): 0.3%
Purity after 14 days 40° C. (%), F3 ([2]; F3: 20 mM phosphate pH 7.5): 99%
Molecule: CC[C@H](C)[C@@H]1NC(=O)[C@@H](NC(=O)[C@H](Cc2ccccc2)NC(=O)[C@H](CCC(=O)O)NC(=O)[C@H](CO)NC(C)=O)CSCC[C@@H](C(=O)N(C)CC(=O)N[C@@H](CCC(=O)O)C(=O)NCC(=O)N[C@@H](CCC(=O)O)C(=O)NCCOCCOCC(=O)NCCOCCOCC(=O)N[C@@H](CCCCNC(=O)CC[C@H](NC(=O)CNC(=O)CC[C@H](NC(=O)CCCCCCCCCCCCCCCCC(=O)O)C(=O)O)C(=O)O)C(N)=O)NC(=O)[C@H](CCCNC(=N)N)NC(=O)[C@H](Cc2c[nH]cn2)NC(=O)[C@H](CCC(=O)O)NC(=O)CNC(=O)[C@H](Cc2c[nH]c3ccccc23)NC(=O)[C@H](CCC(=O)O)NC(=O)[C@H](CCC(N)=O)NC(=O)[C@H](Cc2cn(C)c3ccccc23)NC1=O [Compound 153] (Ac-SEFCI[Trp(1-Me)]QEWGEHR[Abu(4-yl)][Sar]EGE[AEEA][AEEA]K([γGlu-Gly-γGlu-C18 diacid])-NH2; thioether 4-14)
IC50 [1]: < 100 nM

Covalent oligomer content after 14 days 40° C. (%), F1 [2]: 1.1%
Purity after 14 days 40° C. (%), F1 [2]: 92%
Covalent oligomer content after 14 days 40° C. (%), F2 ([2]; F2: 20 mM phosphate pH 6.5): 0.5%
Purity after 14 days 40° C. (%), F2 ([2]; F2: 20 mM phosphate pH 6.5): 96%
Covalent oligomer content after 14 days 40° C. (%), F2 ([2]; F3: 20 mM phosphate pH 7.5): 1.1%
Purity after 14 days 40° C. (%), F3 ([2]; F3: 20 mM phosphate pH 7.5): 95%
Molecule: CC[C@H](C)[C@@H]1NC(=O)[C@@H](NC(=O)[C@H](Cc2ccccc2)NC(=O)[C@H](CCC(=O)O)NC(=O)[C@H](CO)NC(C)=O)CSCC[C@@H](C(=O)N[C@H](C(=O)N[C@@H](CCC(=O)O)C(=O)NCC(=O)N[C@@H](CCC(=O)O)C(=O)NCCOCCOCC(=O)NCCOCCOCC(=O)N[C@@H](CCCCNC(=O)CC[C@H](NC(=O)CNC(=O)CC[C@H](NC(=O)CCCCCCCCCCCCCCCCC(=O)O)C(=O)O)C(=O)O)C(N)=O)[C@@H](C)O)NC(=O)[C@H](CCCNC(=N)N)NC(=O)[C@H](Cc2c[nH]cn2)NC(=O)[C@H](CCC(=O)O)NC(=O)CNC(=O)[C@H](Cc2c[nH]c3ccccc23)NC(=O)[C@H](CC(=O)O)NC(=O)[C@H](CCC(N)=O)NC(=O)[C@H](Cc2cn(C)c3ccccc23)NC1=O [Compound 156, Ac-SEFA(1)I[1-Me-Trp]QDWGEHRhC(1)TEGE[Peg3][Peg3]-K([17-carboxy-heptadecanoyl][γGlu]G[γGlu])-NH2] (Ac-SEFCI[Trp(1-Me)]QDWGEHR[Abu(4-yl)]TEGE[AEEA][AEEA]K([γGlu-Gly-γGlu-C18 diacid])-NH2; thioether 4-14)
IC50 [1]: < 100 nM

B1: Compound 62 (peptide)
peptide: Ac-YCI[Trp(1-Me)]QDWGEHRCTGAES-NH2
modifications: disulfide 2-12
SMILES: CC[C@H](C)[C@@H]1NC(=O)[C@@H](NC(=O)[C@H](Cc2ccc(O)cc2)NC(C)=O)CSSC[C@@H](C(=O)N[C@H](C(=O)NCC(=O)N[C@@H](C)C(=O)N[C@@H](CCC(=O)O)C(=O)N[C@@H](CO)C(N)=O)[C@@H](C)O)NC(=O)[C@H](CCCNC(=N)N)NC(=O)[C@H](Cc2c[nH]cn2)NC(=O)[C@H](CCC(=O)O)NC(=O)CNC(=O)[C@H](Cc2c[nH]c3ccccc23)NC(=O)[C@H](CC(=O)O)NC(=O)[C@H](CCC(N)=O)NC(=O)[C@H](Cc2cn(C)c3ccccc23)NC1=O
IC50[nM], inhibition of hemolysis (Human C3): < 100 nM

B2: Compound 75 (peptide)
peptide: Ac-SEFCI[Trp(1-Me)]QDWGEHRC[Sar]EA-NH2
modifications: disulfide 4-14
SMILES: CC[C@H](C)[C@@H]1NC(=O)[C@@H](NC(=O)[C@H](Cc2ccccc2)NC(=O)[C@H](CCC(=O)O)NC(=O)[C@H](CO)NC(C)=O)CSSC[C@@H](C(=O)N(C)CC(=O)N[C@@H](CCC(=O)O)C(=O)N[C@@H](C)C(N)=O)NC(=O)[C@H](CCCNC(=N)N)NC(=O)[C@H](Cc2c[nH]cn2)NC(=O)[C@H](CCC(=O)O)NC(=O)CNC(=O)[C@H](Cc2c[nH]c3ccccc23)NC(=O)[C@H](CC(=O)O)NC(=O)[C@H](CCC(N)=O)NC(=O)[C@H](Cc2cn(C)c3ccccc23)NC1=O
IC50[nM], inhibition of hemolysis (Human C3): < 100 nM

B3: Compound 82 (peptide)
peptide: Ac-SE[Sar]CI[Trp(1-Me)]QDWGEHRCTEA-NH2
modifications: disulfide 4-14
SMILES: CC[C@H](C)[C@@H]1NC(=O)[C@@H](NC(=O)CN(C)C(=O)[C@H](CCC(=O)O)NC(=O)[C@H](CO)NC(C)=O)CSSC[C@@H](C(=O)N[C@H](C(=O)N[C@@H](CCC(=O)O)C(=O)N[C@@H](C)C(N)=O)[C@@H](C)O)NC(=O)[C@H](CCCNC(=N)N)NC(=O)[C@H](Cc2c[nH]cn2)NC(=O)[C@H](CCC(=O)O)NC(=O)CNC(=O)[C@H](Cc2c[nH]c3ccccc23)NC(=O)[C@H](CC(=O)O)NC(=O)[C@H](CCC(N)=O)NC(=O)[C@H](Cc2cn(C)c3ccccc23)NC1=O
IC50[nM], inhibition of hemolysis (Human C3): < 100 nM

B4: Compound 93 (peptide)
peptide: Ac-ICIWQDWGEHRCTEGK([AEEA-AEEA-γGlu-C16 diacid])-NH2
modifications: disulfide 2-12
SMILES: CC[C@H](C)[C@H](NC(C)=O)C(=O)N[C@H]1CSSC[C@@H](C(=O)N[C@H](C(=O)N[C@@H](CCC(=O)O)C(=O)NCC(=O)N[C@@H](CCCCNC(=O)COCCOCCNC(=O)COCCOCCNC(=O)CC[C@H](NC(=O)CCCCCCCCCCCCCCC(=O)O)C(=O)O)C(N)=O)[C@@H](C)O)NC(=O)[C@H](CCCNC(=N)N)NC(=O)[C@H](Cc2c[nH]cn2)NC(=O)[C@H](CCC(=O)O)NC(=O)CNC(=O)[C@H](Cc2c[nH]c3ccccc23)NC(=O)[C@H](CC(=O)O)NC(=O)[C@H](CCC(N)=O)NC(=O)[C@H](Cc2c[nH]c3ccccc23)NC(=O)[C@H]([C@@H](C)CC)NC1=O
IC50[nM], inhibition of hemolysis (Human C3): < 500 nM

B5: Compound 66 (peptide)
peptide: Ac-YCIWQDWGEHRCTGAES-NH2
modifications: disulfide 2-12
SMILES: CC[C@H](C)[C@@H]1NC(=O)[C@@H](NC(=O)[C@H](Cc2ccc(O)cc2)NC(C)=O)CSSC[C@@H](C(=O)N[C@H](C(=O)NCC(=O)N[C@@H](C)C(=O)N[C@@H](CCC(=O)O)C(=O)N[C@@H](CO)C(N)=O)[C@@H](C)O)NC(=O)[C@H](CCCNC(=N)N)NC(=O)[C@H](Cc2c[nH]cn2)NC(=O)[C@H](CCC(=O)O)NC(=O)CNC(=O)[C@H](Cc2c[nH]c3ccccc23)NC(=O)[C@H](CC(=O)O)NC(=O)[C@H](CCC(N)=O)NC(=O)[C@H](Cc2c[nH]c3ccccc23)NC1=O
IC50[nM], inhibition of hemolysis (Human C3): < 100 nM

B6: Compound 92 (peptide)
peptide: Ac-ICIWQDWGEHRCTEGK([γGlu-C16 diacid])-NH2
modifications: disulfide 2-12
SMILES: CC[C@H](C)[C@H](NC(C)=O)C(=O)N[C@H]1CSSC[C@@H](C(=O)N[C@H](C(=O)N[C@@H](CCC(=O)O)C(=O)NCC(=O)N[C@@H](CCCCNC(=O)CC[C@H](NC(=O)CCCCCCCCCCCCCCC(=O)O)C(=O)O)C(N)=O)[C@@H](C)O)NC(=O)[C@H](CCCNC(=N)N)NC(=O)[C@H](Cc2c[nH]cn2)NC(=O)[C@H](CCC(=O)O)NC(=O)CNC(=O)[C@H](Cc2c[nH]c3ccccc23)NC(=O)[C@H](CC(=O)O)NC(=O)[C@H](CCC(N)=O)NC(=O)[C@H](Cc2c[nH]c3ccccc23)NC(=O)[C@H]([C@@H](C)CC)NC1=O
IC50[nM], inhibition of hemolysis (Human C3): < 1000 nM
